Laboratory results reported in US9873702B2, “Heterocyclic compounds as biogenic amine transport modulators” (Southern Research Institute, priority 2014, dated 2018).
Like-named read-outs stand apart in the source and are kept apart here.

Key:
[1] = target: T1, serotonin transporter (SERT) (Rattus norvegicus, UniProt P31652); assay: Serotonin reuptake ([^3H]serotonin uptake) inhibition in rat brain synaptosomes; format: biochemical
T1 construct: Freshly removed whole brain minus cerebellum and caudate was homogenized; from tissue; host or cells: rat whole brain minus cerebellum and caudate, synaptosomes
T1 sequence (P31652 whole entry): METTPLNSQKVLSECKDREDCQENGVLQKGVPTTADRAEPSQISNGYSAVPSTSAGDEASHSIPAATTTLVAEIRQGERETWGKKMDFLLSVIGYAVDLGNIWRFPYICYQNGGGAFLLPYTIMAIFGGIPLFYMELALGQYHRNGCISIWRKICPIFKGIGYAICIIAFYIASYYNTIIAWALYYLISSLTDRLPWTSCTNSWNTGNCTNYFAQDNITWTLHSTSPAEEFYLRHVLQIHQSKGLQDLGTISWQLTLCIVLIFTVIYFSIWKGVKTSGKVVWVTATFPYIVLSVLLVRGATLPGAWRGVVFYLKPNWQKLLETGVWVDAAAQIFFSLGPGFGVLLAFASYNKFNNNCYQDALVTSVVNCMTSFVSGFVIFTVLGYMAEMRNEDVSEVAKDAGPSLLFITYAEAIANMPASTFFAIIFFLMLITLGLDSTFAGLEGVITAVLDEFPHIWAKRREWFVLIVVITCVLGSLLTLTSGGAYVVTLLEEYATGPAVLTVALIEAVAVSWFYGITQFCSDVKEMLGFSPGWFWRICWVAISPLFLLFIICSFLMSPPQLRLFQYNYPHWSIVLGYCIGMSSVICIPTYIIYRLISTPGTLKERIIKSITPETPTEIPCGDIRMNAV

DAT = target: T2, DAT (Rattus norvegicus, UniProt P23977); assay: Dopamine transporter binding, inhibition of [^3H]WIN35428 binding in rat caudate membranes; conditions: for EC50: read-out: WIN Binding EC50 (μM ± SD)
T2 construct: from tissue; host or cells: rat caudate membranes
T2 sequence (P23977 whole entry): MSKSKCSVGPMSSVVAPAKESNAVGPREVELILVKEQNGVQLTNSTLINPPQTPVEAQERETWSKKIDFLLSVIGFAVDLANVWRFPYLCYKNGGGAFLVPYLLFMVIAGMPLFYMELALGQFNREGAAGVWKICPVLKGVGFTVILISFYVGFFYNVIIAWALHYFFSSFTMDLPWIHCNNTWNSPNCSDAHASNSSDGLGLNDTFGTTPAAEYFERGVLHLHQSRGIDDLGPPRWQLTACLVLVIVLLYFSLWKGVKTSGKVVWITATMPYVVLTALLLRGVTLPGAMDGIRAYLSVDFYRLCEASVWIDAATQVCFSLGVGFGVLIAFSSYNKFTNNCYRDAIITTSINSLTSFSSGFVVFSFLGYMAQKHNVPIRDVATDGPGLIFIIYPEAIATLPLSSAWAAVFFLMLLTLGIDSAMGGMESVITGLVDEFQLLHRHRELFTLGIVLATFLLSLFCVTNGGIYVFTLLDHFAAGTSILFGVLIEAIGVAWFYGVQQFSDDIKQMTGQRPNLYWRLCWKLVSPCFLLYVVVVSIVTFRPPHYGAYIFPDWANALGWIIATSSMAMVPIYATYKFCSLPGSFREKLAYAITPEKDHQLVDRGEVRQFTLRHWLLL
Protocol: The ability of test drugs to inhibit [^3H]WIN35428 binding to DAT in rat caudate membranes was assessed as follows. For each experiment, caudates from four rat brains were suspended in 15 mL ice cold assay buffer (50 mM sodium phosphate pH 7.4) and homogenized using a polytron (setting 6, 20 sec). The homogenate was centrifuged at 30,000×g for 10 minutes at 4° C. The pellet was resuspended with vigorous vortexing in 15 mL fresh ice cold assay buffer, and the centrifugation was repeated. The pellet was resuspended in 15 mL fresh ice cold assay buffer with vigorous vortexing followed by six strokes with a glass-on-glass hand-held homogenizer and was diluted to a final volume of 235 mL in ice cold assay buffer. [^3H]WIN35428 was diluted to 10 nM in assay buffer that contained 25 μg/mL chymostatin, 25 μg/mL leupeptin, 0.1 mM EDTA, and 0.1 mM EGTA. Each assay tube contained 0.75 mL membrane preparation, 0.15 mL test drug diluted in assay buffer containing 1 mg/mL bovine serum albumin, and 0.1 mL [^3H]WIN35428 preparation (final concentration of 1 nM). Assays were initiated by the addition of membranes and were terminated after 2 hours at 25° C. by rapid vacuum filtration. Retained tritium was measured as described. The data from three experiments were pooled and fit to a dose-response curve equation (using Kaleidagraph), to yield an Emax and EC50 value.

[2] = target: T3, dopamine transporter (DAT) (Rattus norvegicus, UniProt P23977); assay: Dopamine reuptake ([^3H]dopamine uptake) inhibition in rat brain synaptosomes
T3 sequence (P23977 whole entry): as above

[3] = target: norepinephrine transporter (NET) (Rattus norvegicus, UniProt Q9WTR4); assay: Norepinephrine reuptake ([^3H]norepinephrine uptake) inhibition in rat brain synaptosomes; conditions: for NE Uptake Emax (% I ± SD): maximal inhibition from dose-response fit
Protocol: Freshly removed whole brain minus cerebellum and caudate was homogenized in 10% ice-cold sucrose with 12 strokes of a hand-held Potter-Elvehjem homogenizer followed by centrifugation at 1000×g for 10 minutes. The supernatants were saved on ice and used immediately. Transporter activity at NET was assessed using 10 nM [^3H]norepinephrine. […] Uptake inhibition assays were conducted at 37° C. and were initiated by adding 100 μL of tissue to 900 μL assay buffer containing test drug and [^3H]norepinephrine. Test drugs were diluted in assay buffer containing 1 mg/mL bovine serum albumin. Nonspecific uptake was measured by incubating in the presence of 10 μM indatraline. The reactions were stopped after 10 minutes by rapid vacuum filtration with a cell harvester (BRANDEL) over GF/B filters (Whatman) presoaked in wash buffer maintained at 25° C. (10 mM Tris-HCl, pH 7.4/150 mM NaCl). Filters were rinsed with 6 mL wash buffer and retained tritium was quantified by a MicroBeta liquid scintillation counter (PerkinElmer) after overnight extraction in 0.6 mL of liquid scintillation cocktail (Cytoscint, ICN). The data from three experiments were pooled and fit to a dose-response curve equation (using Kaleidagraph), to yield an Emax and EC50 value.
The data from three experiments were pooled and fit to a dose-response curve equation (using KaleidaGraph; Synergy Software, Reading, Pa.) to yield an Emax and IC50 value.

[4] = target: T3, dopamine transporter (DAT); assay: Dopamine transporter-mediated [^3H]MPP^+ release, shift of D-amphetamine-induced release, rat caudate synaptosomes; format: biochemical; parameters: Freshly removed caudate was homogenized in 10% ice-cold sucrose; from tissue; host or cells: rat caudate synaptosomes; conditions: for Apparent Kc: [3H]MPP+ release, Apparent Kc = [Blocker]/((EC50-2/EC50-1) − 1), negative when shifted EC50 is less than control; for Kb: apparent Ke from shift of D-amphetamine-induced [^3H]MPP^+ release, compound at the concentration of column 1, read-out: Ke App
[5] = mean ± S.D., n = 3, read-out: SERT Uptake IC50
[6] = 2 h, read-out: DAT Binding εmax
[7] = DAT Uptake IC50, [3H]DA uptake inhibition, mean ± S.D., n = 3
[8] = IC50 for DAT Uptake Inhibition, rounded value as listed in Table 10
[9] = read-out: Emax for DAT Uptake Inhibition
[10] = read-out: NET Uptake IC50, mean ± S.D., n = 3
[11] = Emax of D-amphetamine for [^3H]MPP^+ release in presence of 50 nM test compound
[12] = mean ± S.D., n = 3, read-out: SERT Uptake Emax
[13] = rat brain synaptosomes, 10 nM [^3H]norepinephrine
[14] = read-out: NE Uptake EC50 (nM ± SD), rat brain synaptosomes, 10 nM [^3H]norepinephrine, 10 min, 37° C.
[15] = Emax of D-amphetamine for [^3H]MPP^+ release in presence of 150 nM test compound
[16] = Emax of D-amphetamine for [^3H]MPP^+ release in presence of 250 nM test compound

Compound | IC50 [1, 5] [nM] | Emax (DAT; [6]) [%] | IC50 [2, 7] [nM] | IC50 [2, 8] [nM] | Emax ([2]; read-out: DAT Uptake Emax) [%] | Emax [2, 9] [%] | NET Uptake Emax ([3]; mean ± S.D., n = 3) [%] | IC50 [3, 10] [nM] | Apparent Kc [4] [nM] | Kb [4] [nM] | Emax [1, 12] [%] | NE Uptake Emax (% I ± SD) [3, 13] [% I] | IC50 [3, 14] [nM] | D-Amphetamine Emax (% ± SD) [4, 15] [%] | other results
c1ccc(C(CNc2nc(-c3ccc4nccn4c3)nc3ccccc23)c2ccc[nH]2)cc1 (stereo not drawn) [compound 117, 2-(Imidazo[1,2-A]Pyridin-6-yl)-N-(2-Phenyl-2-(1H-Pyrrol-2-yl)Ethyl)Quinazolin-4-Amine] | 18 ± 4 | 42 ± 3 | 6.1 ± 1 | 6 | 64 ± 2 | 64 | 81 ± 2 | 88 ± 15 | 1600 | 1600 | 56 ± 2 | 81 ± 2 | 88 ± 15 | 105 ± 4 | –
CN(C)c1ccc(-c2nc(NCC(c3ccccc3)c3ccccc3)c3ccccc3n2)cc1 [SRI-29786] | 49 ± 27 | 100 ± 3 | 7.1 ± 2.2 | 7 | – | 70 | 68 ± 7 | 143 ± 61 | 1940 | – | – | – | – | – | –
c1ccc(C(CNc2nc(-c3cnc4nccn4c3)nc3ccccc23)C2CCCCC2)cc1 (stereo not drawn) [compound 102, N-(2-Cyclohexyl-2-Phenylethyl)-2-(Imidazo[1,2-A]Pyrimidin-6-yl)Quinazolin-4-Amine] | 23 ± 3 | 43 ± 4 | 6 ± 0.7 | 6 | 70 ± 1 | 70 | 70 ± 2 | 95 ± 12 | 1600 | 1600 | 54 ± 1 | 70 ± 2 | 95 ± 12 | 104 ± 4 | –
CN(C)c1ncc(-c2nc(NC(c3ccccc3)c3ccccc3)c3ccccc3n2)cn1 [compound 12, N-Benzhydryl-2-(2-(dimethylamino)pyrimidin-5-yl)quinazolin-4-amine] | – | – | – | – | – | – | – | – | – | 7050 | – | 64 ± 10 | 1740 ± 1150 | – | IC50 ([1]; rat brain synaptosomes, 5 nM [^3H]serotonin, 30 min, 25° C., read-out: 5HT Uptake EC50 (nM ± SD)): 699 ± 164 nM; Emax ([1]; rat brain synaptosomes, 5 nM [^3H]serotonin, maximal inhibition from dose-response fit, read-out: 5HT Uptake Emax (% I ± SD)): 48 ± 3%; EC50 (DAT): 1.8 ± 0.4 µM; Emax (DAT; read-out: WIN Binding Emax (% I ± SD)): 71 ± 4%; IC50 ([2]; DA Uptake EC50 (nM ± SD), rat caudate synaptosomes, 5 nM [^3H]dopamine, 15 min, 25° C., three experiments pooled): 174 ± 58 nM; Emax ([2]; read-out: DA Uptake Emax (% I ± SD)): 66 ± 4%; D-Amphetamine Emax (% ± SD) ([4]; Emax of D-amphetamine for [^3H]MPP^+ release in presence of 5000 nM test compound): 98 ± 1%
c1ccc(C(CNc2nc(-c3ccc4ncnn4c3)nc3ccccc23)c2ccccc2)cc1 [compound 105, 2-([1,2,4]Triazolo[1,5-A]Pyridin-6-yl)-N-(2,2-Diphenylethyl)Quinazolin-4-Amine] | 13 ± 6 | – | 8.8 ± 1.1 | 9 | 63 ± 1 | 63 | 40 ± 5 | 86 ± 55 | – | – | 35 ± 3 | 40 ± 5 | 86 ± 55 | – | DAT Binding εmax (DAT; inhibition of [3H]WIN35428 binding, mean ± S.D., n = 3): Inactive; D-Amphetamine Emax (% ± SD) [4, 16]: 105 ± 4%
c1ccc(C(CNc2nc(-c3cnc4nccn4c3)nc3ccccc23)c2ccncc2)cc1 (stereo not drawn) [compound 110, 2-(Imidazo[1,2-A]Pyrimidin-6-yl)-N-(2-Phenyl-2-(Pyridin-4-yl)Ethyl)Quinazolin-4-Amine] | 11 ± 3 | 25 ± 2 | 5.6 ± 0.8 | 6 | 64 ± 1 | 64 | 69 ± 2 | 60 ± 10 | 1200 | 1200 | 51 ± 2 | 69 ± 2 | 60 ± 10 | 104 ± 5 | –
c1ccc(C(CNc2nc(-c3ccc4[nH]ccc4c3)nc3ccccc23)c2ccccc2)cc1 [compound 17, N-(2,2-Diphenylethyl)-2-(1H-indol-5-yl)quinazolin-4-amine] | 68 ± 13 | 87 ± 4 | 10 ± 1 | 10 | 74 ± 1 | 74 | 70 ± 3 | 290 ± 52 | 456 | 456 | 54 ± 2 | 70 ± 3 | 290 ± 52 | – | EC50 (DAT): 0.9 ± 0.2 µM; D-Amphetamine Emax (% ± SD) [4, 16]: 94 ± 2%

Continued, in another order:

IC50 [1, 5] [nM] | Emax (DAT; [6]) [%] | IC50 [2, 7] [nM] | IC50 [2, 8] [nM] | Emax ([2]; read-out: DAT Uptake Emax) [%] | Emax [2, 9] [%] | NET Uptake Emax ([3]; mean ± S.D., n = 3) [%] | IC50 [3, 10] [nM] | Apparent Kc [4] [nM] | Kb [4] [nM] | Emax [1, 12] [%] | NE Uptake Emax (% I ± SD) [3, 13] [% I] | IC50 [3, 14] [nM] | D-Amphetamine Emax (% ± SD) [4, 15] [%] | Compound | other results
2.4 ± 0.4 | 92 ± 4 | 1.9 ± 0.3 | 2 | 72 ± 2 | 72 | 61 ± 2 | 17 ± 4 | 400 | 400 | – | – | – | – | Cc1cc2nccn2cc1-c1nc(NCC(c2ccccc2)c2ccncc2)c2ccccc2n1 (stereo not drawn) [compound 151, 2-(7-Methylimidazo[1,2-A]Pyridin-6-yl)-N-(2-Phenyl-2-(Pyridin-4-yl)Ethyl)Quinazolin-4-Amine] | D-Amphetamine Emax (% ± SD) [4, 11]: 103 ± 3%
3.1 ± 0.7 | 91 ± 7 | 1.2 ± 0.1 | 1 | 69 ± 1 | 69 | 70 ± 4 | 11 ± 4 | 55 | – | 54 ± 2 | 70 ± 4 | 11 ± 4 | – | Cc1cc2nccn2cc1-c1nc(NCC(c2ccccc2)c2ccc[nH]2)c2ccccc2n1 (stereo not drawn) [compound 140, 2-(7-Methylimidazo[1,2-A]Pyridin-6-yl)-N-(2-Phenyl-2-(1H-Pyrrol-2-yl)Ethyl)Quinazolin-4-Amine] | D-Amphetamine Emax (% ± SD) ([4]; Emax of D-amphetamine for [^3H]MPP^+ release in presence of 25 nM test compound): 105 ± 3%
3 ± 0.6 | 52 ± 8 | 1.7 ± 0.1 | 2 | 69 ± 1 | – | 69 ± 4 | 16 ± 5 | 46 | – | – | – | – | – | Cc1cc2nccn2cc1-c1nc(NCC(O)(c2ccccc2)c2ccccc2)c2ccccc2n1 [compound 152, 2-((2-(7-Methylimidazo[1,2-A]Pyridin-6-yl)Quinazolin-4-yl)Amino)-1,1-Diphenylethanol] | D-Amphetamine Emax (% ± SD) [4, 11]: 104 ± 4%
